pEC50: −log10 of the molar value.
Legend:
D. immitis Slo-1 = D. immitis Slo-1 (Dirofilaria immitis, UniProt I0DFK5); test: D. immitis Slo-1, action at a recombinant CHO cell line (membrane potential, FLIPR); type: cell-based
[1] = tested on: Nippostrongylus brasiliensis; test: Nippostrongylus brasiliensis (NIPOBR) adult worms, acetylcholine esterase readout; details: read-out: activity (reduction of AChE compared to negative control); for inhibition at 1 µg/mL: at 1 μg/ml (1 ppm); for inhibition at 10 µg/mL: at 10 μg/ml (10 ppm)
Procedure: In Vitro Assay 3: Nippostrongylus brasiliensis (NIPOBR)
Adult Nippostrongylus brasiliensis were washed with saline buffer containing 100 U/ml penicillin, 0.1 mg/ml streptomycin and 2.5 μg/ml amphotericin B. Test compounds were dissolved in DMSO and worms were incubated in medium in a final concentration of 10 μg/ml (10 ppm) respectively 1 μg/ml (1 ppm). An aliquot of the medium was used to determine the acetylcholine esterase activity in comparison to a negative control. The principle of measuring acetylcholine esterase as readout for anthelmintic activity was described in Rapson et al (1986) and Rapson et al (1987).

[2] = tested on: Dirofilaria immitis microfilariae; test: Dirofilaria immitis microfilariae (DIROIM L1) motility; details: 72 h, read-out: EC50 (reduction of motility)
Dirofilaria immitis = Dirofilaria immitis (DIROIM L4) larval motility; details: 72 h, read-out: EC50 (reduction of motility)
C. elegans Slo-1a = C. elegans Slo-1a (Caenorhabditis elegans, UniProt Q95V25); details: pE50 (negative decadic logarithm of EC50), CHO cells expressing C. elegans Slo-1a; voltage sensitive dye, 70 mM KCl
Sequence of C. elegans Slo-1a (Q95V25 whole entry): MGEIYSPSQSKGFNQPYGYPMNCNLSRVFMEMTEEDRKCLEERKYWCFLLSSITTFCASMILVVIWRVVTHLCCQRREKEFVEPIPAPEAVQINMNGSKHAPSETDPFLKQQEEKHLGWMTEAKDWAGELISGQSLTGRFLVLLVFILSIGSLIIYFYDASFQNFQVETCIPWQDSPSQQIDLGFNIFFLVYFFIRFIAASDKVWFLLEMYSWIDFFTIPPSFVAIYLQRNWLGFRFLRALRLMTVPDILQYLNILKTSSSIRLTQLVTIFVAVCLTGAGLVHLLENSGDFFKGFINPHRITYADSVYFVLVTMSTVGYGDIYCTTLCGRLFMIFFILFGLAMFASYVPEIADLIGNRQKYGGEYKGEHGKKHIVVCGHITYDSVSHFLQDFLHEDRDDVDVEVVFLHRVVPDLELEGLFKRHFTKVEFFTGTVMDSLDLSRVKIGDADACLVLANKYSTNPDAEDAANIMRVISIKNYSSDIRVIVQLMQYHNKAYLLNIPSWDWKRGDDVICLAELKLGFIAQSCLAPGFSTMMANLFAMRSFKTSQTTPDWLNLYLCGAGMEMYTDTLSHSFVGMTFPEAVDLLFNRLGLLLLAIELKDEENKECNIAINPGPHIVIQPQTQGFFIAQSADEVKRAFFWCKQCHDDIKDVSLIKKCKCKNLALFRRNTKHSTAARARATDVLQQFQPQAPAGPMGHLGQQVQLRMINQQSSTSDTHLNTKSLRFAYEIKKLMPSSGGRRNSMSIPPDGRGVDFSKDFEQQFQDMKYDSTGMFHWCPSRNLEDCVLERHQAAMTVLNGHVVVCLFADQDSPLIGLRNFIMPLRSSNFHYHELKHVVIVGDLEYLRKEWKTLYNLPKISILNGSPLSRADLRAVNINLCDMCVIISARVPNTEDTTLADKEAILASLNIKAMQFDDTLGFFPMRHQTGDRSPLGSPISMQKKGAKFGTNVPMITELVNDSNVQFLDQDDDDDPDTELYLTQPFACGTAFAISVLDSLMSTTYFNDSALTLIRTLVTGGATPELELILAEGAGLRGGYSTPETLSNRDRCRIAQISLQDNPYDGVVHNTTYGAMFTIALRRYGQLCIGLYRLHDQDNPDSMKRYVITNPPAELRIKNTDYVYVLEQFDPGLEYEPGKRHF
Procedure: Generation of a Stable C. elegans CHO Cell Line
A CHO cell line was obtained from ATCC, code ATCC CRL-9096. […] The transfection solution included 300 μL OptiMEM (Life Technologies, Nr.: 31985), 2 μL (=6 μg) of plasmid DNA containing the C. elegans Slo 1a gene and 9 μL FugeneHD (Promega, Nr.: E2311), and was added to the cells prior to incubation for 48 hours at 37° C., 5% CO2. The transfection medium was exchanged for the selection medium which contains additional G418 (2 mg/ml, Invitrogen, Nr.: 10131) and the cells were seeded into 384 well plates (300 cells/well). After a few weeks, the remaining surviving cells were tested with a voltage sensitive dye (Membrane Potential Assay Kit, Molecular Devices Nr.: R8034) for K+ channel expression. Positive cell clones were purified by the limited dilution technique. For this the clone with the highest and most robust signal in the voltage sensitive dye assay was further subcloned (incubated) in 384 well plates (0.7 cells/well) in order to obtain clonal purity. This generated a final stable CHO cell line expressing the C. elegans Slo-1a.
Cells were cultured at 37° C. and 5% CO2 in MEMalpha with Gutamax I (Invitrogen, Nr.: 32571), supplemented with 10% (v/v) heat inactivated fetal bovine serum (Invitrogen, Nr.: 10500), G418 (1 mg/ml, Invitrogen, Nr.: 10131). Cells were detached using Accutase (Sigma, Nr.: A6964).
Membrane Potential Measurements
Laboratory compound testing was performed on 384-well microtiter plates (MTPs, Greiner, Nr.: 781092). 8000 cells/well were plated onto 384-well MTPs and cultured for 20 to 24 hours at 37° C. and 5% CO2. After removal of the cell culture medium, the cells were washed once with tyrode (150 mM NaCl, 0.3 mM KCl, 2 mM CaCl2, 1 mM MgCl2, 0.8 mM NaH2PO4, 5 mM Glucose, 28 mM Hepes, pH 7.4) and then loaded with the voltage sensitive dye of the Membrane Potential Assay Kit diluted in tyrode for 1 h at room temperature.
After starting the measurement of fluorescence using a FLIPR Tetra (Molecular Devices, Exc. 510-545 nm, Emm. 565-625 nm), test compounds were added followed by the addition of KCl tyrode (final assay concentration: 70 mM KCl, 2 mM CaCl2, 1 mM MgCl2, 0.8 mM NaH2PO4, 5 mM Glucose, 28 mM Hepes, pH 7.4, including the voltage sensitive dye). The measurement was completed after 7 minutes.
The data were evaluated by using the ActivityBase XLfit software (IDBS) for curve fitting and calculation of the half-maximal effective concentration (EC50) and are reported as negative decadic logarithm (pE50).

Sequence of D. immitis Slo-1 (I0DFK5 1-1119): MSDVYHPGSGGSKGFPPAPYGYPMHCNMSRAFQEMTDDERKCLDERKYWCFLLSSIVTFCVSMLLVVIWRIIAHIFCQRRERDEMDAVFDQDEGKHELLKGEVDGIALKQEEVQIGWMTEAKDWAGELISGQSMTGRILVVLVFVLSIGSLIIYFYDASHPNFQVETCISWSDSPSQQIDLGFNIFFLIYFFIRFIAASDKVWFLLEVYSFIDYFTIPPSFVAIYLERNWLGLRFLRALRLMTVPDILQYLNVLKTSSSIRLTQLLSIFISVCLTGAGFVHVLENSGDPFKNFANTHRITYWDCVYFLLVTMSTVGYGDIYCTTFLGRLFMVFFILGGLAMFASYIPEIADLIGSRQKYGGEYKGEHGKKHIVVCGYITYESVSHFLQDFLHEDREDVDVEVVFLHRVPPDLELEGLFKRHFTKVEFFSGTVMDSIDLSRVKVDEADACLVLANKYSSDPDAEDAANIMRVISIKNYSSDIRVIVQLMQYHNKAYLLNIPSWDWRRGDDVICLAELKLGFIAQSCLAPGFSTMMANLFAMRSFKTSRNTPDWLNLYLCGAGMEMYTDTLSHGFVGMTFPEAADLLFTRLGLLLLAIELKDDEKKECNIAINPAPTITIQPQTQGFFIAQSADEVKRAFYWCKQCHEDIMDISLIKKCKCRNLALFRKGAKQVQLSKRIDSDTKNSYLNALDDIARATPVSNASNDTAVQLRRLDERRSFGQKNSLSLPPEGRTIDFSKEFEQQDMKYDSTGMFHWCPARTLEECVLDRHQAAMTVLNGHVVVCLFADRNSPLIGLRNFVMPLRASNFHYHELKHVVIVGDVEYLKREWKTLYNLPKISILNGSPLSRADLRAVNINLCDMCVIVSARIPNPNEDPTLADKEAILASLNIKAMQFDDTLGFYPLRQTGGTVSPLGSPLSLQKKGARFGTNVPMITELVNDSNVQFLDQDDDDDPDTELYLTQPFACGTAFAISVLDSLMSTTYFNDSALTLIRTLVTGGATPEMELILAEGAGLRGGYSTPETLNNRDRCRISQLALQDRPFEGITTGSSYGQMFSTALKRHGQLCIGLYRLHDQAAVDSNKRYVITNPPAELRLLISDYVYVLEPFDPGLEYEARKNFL

SMILES | pEC50 (D. immitis Slo-1) | inhibition at 1 µg/mL [1] [%] | inhibition at 10 µg/mL [1] [%] | EC50 [2] [µg/mL] | EC50 (Dirofilaria immitis) [µg/mL] | pEC50 (C. elegans Slo-1a)
O=C(N[C@H]1CCOc2ccccc21)c1cnc2c(-c3cc(F)cc(F)c3F)ncc(F)c2c1N1CCOCC1 [Example T1-8, N-[(4S)-3,4-dihydro-2H-1-benzopyran-4-yl]-5-fluoro-4-(morpholin-4-yl)-8-(2,3,5-trifluorophenyl)-1,7-naphthyridine-3-carboxamide] | 6.50 to 7.50 | > 80 | > 80 | < 0.1 | < 0.1 | 
COc1cnc(-c2cc(F)cc(F)c2F)c2ncc(C(=O)N[C@H]3CCOc4ccccc43)c(N(C)C)c12 [Example T1-13, N-[(4S)-3,4-dihydro-2H-1-benzopyran-4-yl]-4-(dimethylamino)-5-methoxy-8-(2,3,5-trifluorophenyl)-1,7-naphthyridine-3-carboxamide] | 6.50 to 7.50 | > 80 | > 80 | < 0.1 | < 0.1 | 
O=C(N[C@H]1CCOc2ccccc21)c1cnc2c(-c3cccc(Cl)c3Cl)nccc2c1 [Example T1-15, 8-(2,3-dichlorophenyl)-N-[(4S)-3,4-dihydro-2H-chromen-4-yl]-1,7-naphthyridine-3-carboxamide] |  |  |  |  |  | 6.50 to 7.50
CN(C)c1c(C(=O)N[C@H]2CCOc3ccccc32)cnc2c(-c3cccc(Cl)c3Cl)cncc12 [Example T2-2, 8-(2,3-Dichlorophenyl)-N-[(4S)-3,4-dihydro-2H-chromen-4-yl]-4-(dimethylamino)-1,6-naphthyridine-3-carboxamide] |  |  | > 80 | < 0.1 |  | 7.50 to 8.50
COc1ncc2c(N3CCOCC3)c(C(=O)N[C@H]3CCOc4ccccc43)cnc2c1-c1cccc(Cl)c1Cl [Example T2-6, 8-(2,3-dichlorophenyl)-N-[(4S)-3,4-dihydro-2H-1-benzopyran-4-yl]-7-methoxy-4-(morpholin-4-yl)-1,6-naphthyridine-3-carboxamide] | 7.50 to 8.50 |  |  | < 0.1 | < 0.1 | 
COc1ncc2c(N(C)C)c(C(=O)N[C@H]3CCOc4ccccc43)cnc2c1-c1cccc(Cl)c1Cl [Example T2-7, 8-(2,3-dichlorophenyl)-N-[(4S)-3,4-dihydro-2H-1-benzopyran-4-yl]-4-(dimethylamino)-7-methoxy-1,6-naphthyridine-3-carboxamide] | 7.50 to 8.50 |  |  | < 0.1 | < 0.1 | 
COc1ncc2c(N(C)C)c(C(=O)N[C@H]3CCOc4ccccc43)cnc2c1-c1cc(Cl)cc(Cl)c1 [Example T2-8, 8-(3,5-dichlorophenyl)-N-[(4S)-3,4-dihydro-2H-1-benzopyran-4-yl]-4-(dimethylamino)-7-methoxy-1,6-naphthyridine-3-carboxamide] | 7.50 to 8.50 | > 80 | > 80 | < 0.1 | < 0.1 | 
COc1ncc2c(N3CCOCC3)c(C(=O)N[C@H]3CCOc4ccccc43)cnc2c1-c1cc(Cl)cc(Cl)c1 [Example T2-9, 8-(3,5-dichlorophenyl)-N-[(4S)-3,4-dihydro-2H-1-benzopyran-4-yl]-7-methoxy-4-(morpholin-4-yl)-1,6-naphthyridine-3-carboxamide] | 7.50 to 8.50 | > 80 | > 80 | < 0.1 | < 0.1 | 
COc1ncc(-c2cc(Cl)cc(Cl)c2)c2ncc(C(=O)N[C@H]3CCOc4ccccc43)c(N3CCOCC3)c12 [Example T2-10, 8-(3,5-dichlorophenyl)-N-[(4S)-3,4-dihydro-2H-1-benzopyran-4-yl]-5-methoxy-4-(morpholin-4-yl)-1,6-naphthyridine-3-carboxamide] | 6.50 to 7.50 | > 80 | > 80 | < 0.1 | < 0.1 | 
CN(C)c1c(C(=O)N[C@H]2CCOc3ccccc32)cnc2c(-c3cc(F)cc(F)c3F)c(Cl)cnc12 [Example T3-5, 7-chloro-N-[(4S)-3,4-dihydro-2H-1-benzopyran-4-yl]-4-(dimethylamino)-8-(2,3,5-trifluorophenyl)-1,5-naphthyridine-3-carboxamide] | 7.50 to 8.50 |  |  | < 0.1 | < 0.1 | 
O=C(N[C@H]1CCOc2ccccc21)c1cnc2c(-c3cc(F)cc(F)c3F)c(Cl)cnc2c1N1CCOCC1 [Example T3-6, 7-chloro-N-[(4S)-3,4-dihydro-2H-1-benzopyran-4-yl]-4-(morpholin-4-yl)-8-(2,3,5-trifluorophenyl)-1,5-naphthyridine-3-carboxamide] | 7.50 to 8.50 |  |  | < 0.1 | < 0.1 | 
CN(C)c1c(C(=O)N[C@H]2CCOc3ccccc32)cnc2c(-c3cc(Cl)cc(Cl)c3)c(Cl)cnc12 [Example T3-7, 7-chloro-8-(3,5-dichlorophenyl)-N-[(4S)-3,4-dihydro-2H-1-benzopyran-4-yl]-4-(dimethylamino)-1,5-naphthyridine-3-carboxamide] | 7.50 to 8.50 |  |  | < 0.1 | < 0.1 | 
CN(C)c1c(C(=O)N[C@H]2CCOc3ccccc32)cnc2c(-c3cccc(Cl)c3Cl)c(Cl)cnc12 [Example T3-8, 7-chloro-8-(2,3-dichlorophenyl)-N-[(4S)-3,4-dihydro-2H-1-benzopyran-4-yl]-4-(dimethylamino)-1,5-naphthyridine-3-carboxamide] | 7.50 to 8.50 | > 80 | > 80 | < 0.1 | < 0.1 | 
O=C(N[C@H]1CCOc2ccccc21)c1cnc2c(-c3cccc(Cl)c3Cl)c(Cl)cnc2c1N1CCOCC1 [Example T3-9, 7-chloro-8-(2,3-dichlorophenyl)-N-[(4S)-3,4-dihydro-2H-1-benzopyran-4-yl]-4-(morpholin-4-yl)-1,5-naphthyridine-3-carboxamide] | 7.50 to 8.50 | > 80 | > 80 | < 0.1 | < 0.1 | 
COc1cnc2c(N(C)C)c(C(=O)N[C@H]3CCOc4ccccc43)cnc2c1-c1cc(Cl)cc(Cl)c1 [Example T3-10, 8-(3,5-dichlorophenyl)-N-[(4S)-3,4-dihydro-2H-1-benzopyran-4-yl]-4-(dimethylamino)-7-methoxy-1,5-naphthyridine-3-carboxamide] | 7.50 to 8.50 | > 80 | > 80 | < 0.1 | < 0.1 | 
CN(C)c1c(C(=O)N[C@H]2CCOc3ccccc32)cnc2c(-c3cc(Cl)cc(Cl)c3)c(F)cnc12 [Example T3-11, 8-(3,5-dichlorophenyl)-N-[(4S)-3,4-dihydro-2H-1-benzopyran-4-yl]-4-(dimethylamino)-7-fluoro-1,5-naphthyridine-3-carboxamide] | 7.50 to 8.50 | > 80 | > 80 | < 0.1 | < 0.1 | 
COc1cnc2c(N(C)C)c(C(=O)N[C@H]3CCOc4ccccc43)cnc2c1-c1cccc(Cl)c1Cl [Example T3-12, 8-(2,3-dichlorophenyl)-N-[(4S)-3,4-dihydro-2H-1-benzopyran-4-yl]-4-(dimethylamino)-7-methoxy-1,5-naphthyridine-3-carboxamide] | 7.50 to 8.50 | > 80 | > 80 | < 0.1 | < 0.1 | 
COc1cnc2c(N3CCOCC3)c(C(=O)N[C@H]3CCOc4ccccc43)cnc2c1-c1cccc(Cl)c1Cl [Example T3-14, 8-(2,3-dichlorophenyl)-N-[(4S)-3,4-dihydro-2H-1-benzopyran-4-yl]-7-methoxy-4-(morpholin-4-yl)-1,5-naphthyridine-3-carboxamide] | 7.50 to 8.50 | > 80 | > 80 | < 0.1 | < 0.1 | 
COc1cnc2c(N3CCOCC3)c(C(=O)N[C@H]3CCOc4ccccc43)cnc2c1-c1cc(F)cc(F)c1F [Example T3-16, N-[(4S)-3,4-dihydro-2H-1-benzopyran-4-yl]-7-methoxy-4-(morpholin-4-yl)-8-(2,3,5-trifluorophenyl)-1,5-naphthyridine-3-carboxamide] | 7.50 to 8.50 | > 80 | > 80 | < 0.1 | < 0.1 | 
O=C(N[C@H]1CCOc2ccccc21)c1cnc2c(-c3cccc(Cl)c3Cl)c(F)cnc2c1N1CCOCC1 [Example T3-18, 8-(2,3-dichlorophneyl)-N-[(4S)-3,4-dihydro-2H-1-benzopyran-4-yl]-7-fluoro-4-(morpholin-4-yl)-1,5-naphthyridine-3-carboxamide] | 7.50 to 8.50 | > 80 | > 80 | < 0.1 | < 0.1 | 
CN(C)c1c(C(=O)N[C@H]2CCOc3ccccc32)cnc2c(-c3cc(F)cc(F)c3F)c(F)cnc12 [Example T3-19, N-[(4S)-3,4-dihydro-2H-1-benzopyran-4-yl]-4-(dimethylamino)-7-fluoro-8-(2,3,5-trifluorophenyl)-1,5-naphthyridine-3-carboxamide] | 7.50 to 8.50 | > 80 | > 80 | < 0.1 | < 0.1 | 
CN(C)c1c(C(=O)N[C@H]2CCOc3ccccc32)nnc2c(-c3ccc(F)c(F)c3)cccc12 [Example T5-4, 8-(3,4-Difluorophenyl)-N-[(4S)-3,4-dihydro-2H-chromen-4-yl]-4-(dimethylamino)cinnoline-3-carboxamide] | 6.50 to 7.50 |  |  | < 0.1 |  | 6.50 to 7.50
